# Read-outs that look alike come from different tables or passages of the source.
# Key:
# [1] = format: in vitro ADME, hairless mouse (Outbred Nude mouse); conditions: for skin permeation rate: 50% w/w drug loading
# Description: An in vitro excised hairless mouse skin/modified Franz Diffusion Cell model was used to evaluate skin permeability of neat MDL 73,745, the title compound of Example 1, and permeation profile of MDL 73,745 from various prototype transdermal delivery systems. Prototype transdermal delivery systems containing MDL 73,745 were prepared in various acrylic, silastic, ethylene vinyl acetate copolymer, and rubber based pressure sensitive adhesives and evaluated in the in vitro skin permeation cell model.
# In vitro skin permeation model: For this study an in vitro finite-dose glass diffusion cell (modified Franz Diffusion Cell)/freshly excised hairless mouse skin model was used. The diffusion consists of two parts: (i) a receptor compartment which is an upright reservoir jacketed by a glass chamber on the outside. Experiments were conducted at 37° C. by circulating thermostatically controlled water at 37° C. in this jacket and (ii) donor cap, which is clamped together with the receptor compartment with a metal clamp. A piece of skin/(transdermal formulation) is sandwiched between the donor and the receptor compartments and clamped together. Sampling from the receptor compartment is taken at predetermined time intervals through the sampling port.
# Hairless mouse: Outbred Nude mouse {CRL NU/NU (CD1) BR, 6-8 weeks old, male} from Charles River, Mass.
# Excised skin: Immediately following sacrifice by CO2 gas, a portion (3.5×3.5 cm) of the full-thickness abdominal skin was carefully excised from the hairless mouse. The dermal side of the skin was carefully cleaned of any adhering subcutaneous tissue and/or blood vessels. Extreme care was taken not to scratch or damage the stratum corneum. Before mounting onto the diffusion cell, each piece of skin was carefully inspected to insure that the skin was not damaged.
# (§1) Dermal elution media: A 5% solution of polyethylene glycol 20 Oleyl ether (Trycol®, Emery) in 0.9% sodium chloride was used as the receptor medium for the modified Franz Diffusion Cells. […] Temperature of the dermal elution media was maintained at 37° C. using a thermostated constant temperature circulating water bath.
# Skin permeation profile from neat MDL 73,745 and from Prototype formulations: Full-thickness skin, prepared freshly as outlined above, was mounted in a modified Franz Diffusion Cell with the stratum corneum side facing upward. To study the permeation profile of neat MDL 73,745, 50 μl of MDL 73,745 was uniformly applied onto the stratum corneum. The donor cap was placed over the skin and the whole assembly was then securely clamped together. The donor cap was covered with a piece of aluminum foil to reduce the volatilization of MDL 73,745. To evaluate the skin permeation profile of MDL 73,745 from a prototype transdermal formulation, a unit of prototype transdermal system (about 4.9 cm^2 circular) containing MDL 73,745 was placed onto the skin with the drug releasing side in intimate contact with the stratum corneum (slight pressure was applied to insure good contact). The donor cap was placed over the skin and the whole assembly was then securely clamped together.
# Dermal elution medium (5% w/w Trycol® in normal saline) was then introduced into the receptor compartment through the sampling port. At predetermined time intervals, the entire volume of the receptor solution was withdrawn and immediately replaced with the same volume of fresh, drug free dermal elution medium (5% w/w Trycol® in normal saline), maintained at 37° C. The concentration of MDL 73,745 was determined by a sensitive HPLC method described under Analytical Method section below.
# Analytical Method: An automated high performance liquid chromatograph equipped with a gradient pump (Waters Model 600E), autoinjector/sampler (Waters, Model 715 WISP), and a variable wavelength UV detector (Waters, Model 490) was used. The autoinjector/sampler was maintained at 2° C. to reduce possible evaporation/degradation of MDL 73,745 in the sample. […]
# [2] = tested on: plasma cholineesterase; assay: Inhibition of plasma cholinesterase activity during patch application in dogs; format: in vivo, Beagle dog; conditions: `lead` prototype patch, throughout patch application (96 hours)
# Description: Transdermal Bioavailability of MDL 73,745 from a prototype transdermal delivery system in Beagle Dogs
# A `lead` prototype formulation was then evaluted in an in vivo dog model. […] The rate of in vivo transdermal delivery in the dog was calculated to be 7.7 μg/cm^2 /hr.
# [3] = Aqueous solubility of MDL 73,745 in Trycol medium; format: physicochemical; conditions: in presence of Trycol (polyethylene glycol 20 Oleyl ether), 5% in 0.9% sodium chloride
# Description: as §1
structure (smiles),measurement,setting,value
"C[Si](C)(C)c1cccc(C(=O)C(F)(F)F)c1 [MDL 73,745, 2,2,2-Trifluoro-1-(3-trimethylsilylphenyl) ethanone]",rate of transdermal delivery,"[1]; 3M acrylic adhesive #9871, 50% w/w drug loading",13.01 μg/cm^2 /hr
same,rate of transdermal delivery,"[1]; 3M acrylic adhesive #9871, 60% w/w drug loading",21.04 μg/cm^2 /hr
same,transdermal delivery profile,[1]; 3M acrylic adhesive #9871 prototypes,"constant, zero-order profile"
same,skin permeation rate,[1]; prototype in Gelva 737,12.95 μg/cm^2 /hr
same,skin permeation rate,[1]; prototype in Gelva 788,8.63 μg/cm^2 /hr
same,skin permeation profile,[1]; DuroTak 72-9718 rubber based PSA prototypes,"constant, zero-order profile"
same,rate of transdermal delivery,"[1]; DuroTak 72-9718 rubber based PSA, 20% w/w drug loading",12.92 μg/cm^2 /hr
same,rate of transdermal delivery,[1]; Eva-Tak 72-9660 prototype containing 50% drug,33.86 μg/cm^2 /hr
same,rate of transdermal delivery,[1]; Eva-Tak 72-9660 prototype containing 60% drug,20.59 μg/cm^2 /hr
same,transdermal delivery profile,"[1]; Eva-Tak 72-9660 prototypes, throughout duration of patch application","controlled, zero-order fashion"
same,rate of transdermal delivery,[1]; Nacor 38-4515 prototype containing 50% w/w drug,19.18 μg/cm^2 /hr
same,transport profile through skin,"[1]; neat MDL 73,745",controlled zero order fashion
same,rate of transdermal delivery,"[1]; neat MDL 73,745, 50 μl on stratum corneum",208.21 μg/cm^2 /hr
same,"period of controlled, zero-order transdermal delivery",[1]; prototypes in various acrylic PSA,at least 24 hours
same,inhibition of plasma cholineesterase activity,[2],inhibition of plasma cholineesterase activity was achieved
same,aqueous solubility,[3],increases the aqueous solubility

# — patent US5693668A, “Acetylcholinesterase inhibitors” (priority 1989, dated 1997)
